Columns and labels:
ACHN = test: Cytotoxicity against human ACHN cells assessed as cell growth at 0.01 uM after 48 hrs by sulforhodamine B assay relative to control; type: functional; conditions: read-out: Activity
HL-60(TB) [1] = test: Cytotoxicity against human HL-60(TB) cells assessed as growth inhibition after 48 hrs by sulforhodamine B assay; type: functional; conditions: HL-60, 48 h
MOLT-4 [2] = test: Cytotoxicity against human MOLT4 cells assessed as cell growth at 1 uM after 48 hrs by sulforhodamine B assay relative to control; type: functional; conditions: MOLT-4, 48 h, read-out: Activity
DU-145 = test: Cytotoxicity against human DU145 cells assessed as cell growth at 0.01 uM after 48 hrs by sulforhodamine B assay relative to control; type: functional; conditions: DU-145, 48 h, read-out: Activity
HOP-62 [3] = test: Cytotoxicity against human HOP62 cells assessed as cell growth at 10 uM after 48 hrs by sulforhodamine B assay relative to control; type: functional; conditions: HOP-62, 48 h, read-out: Activity
TK-10 = test: Cytotoxicity against human TK10 cells assessed as cell growth at 10 uM after 48 hrs by sulforhodamine B assay relative to control; type: functional; conditions: TK-10, 48 h, read-out: Activity
IGROV-1 [4] = test: Cytotoxicity against human IGROV1 cells assessed as cell growth at 10 uM after 48 hrs by sulforhodamine B assay relative to control; type: functional; conditions: IGROV-1, 48 h, read-out: Activity
UACC-257 [5] = test: Cytotoxicity against human UACC257 cells assessed as cell growth at 1 uM after 48 hrs by sulforhodamine B assay relative to control; type: functional; conditions: UACC-257, 48 h, read-out: Activity
HOP-62 [6] = test: Cytotoxicity against human HOP62 cells assessed as cell growth at 0.1 uM after 48 hrs by sulforhodamine B assay relative to control; type: functional; conditions: HOP-62, 48 h, read-out: Activity
786-0 [7] = test: Cytotoxicity against human 786-0 cells assessed as cell growth at 100 uM after 48 hrs by sulforhodamine B assay relative to control; type: functional; conditions: 786-0, 48 h, read-out: Activity
A549 = test: Cytotoxicity against human A549/ATCC cells assessed as cell growth at 1 uM after 48 hrs by sulforhodamine B assay relative to control; type: functional; conditions: A549, 48 h, read-out: Activity
NCI/ADR-RES = test: Cytotoxicity against human NCI/ADR-RES cells assessed as cell growth at 10 uM after 48 hrs by sulforhodamine B assay relative to control; type: functional; conditions: read-out: Activity
MOLT-4 [8] = test: Cytotoxicity against human MOLT4 cells assessed as cell growth at 10 uM after 48 hrs by sulforhodamine B assay relative to control; type: functional; conditions: MOLT-4, 48 h, read-out: Activity
SK-MEL-5 = test: Cytotoxicity against human SK-MEL-5 cells assessed as cell growth at 100 uM after 48 hrs by sulforhodamine B assay relative to control; type: functional; conditions: SK-MEL-5, 48 h, read-out: Activity
MDA-MB-231 [9] = test: Cytotoxicity against human MDA-MB-231 cells assessed as cell growth at 100 uM after 48 hrs by sulforhodamine B assay relative to control; type: functional; conditions: MDA-MB-231, 48 h, read-out: Activity
SK-MEL-28 [10] = test: Cytotoxicity against human SK-MEL-28 cells assessed as growth inhibition after 48 hrs by sulforhodamine B assay; type: functional; conditions: SK-MEL-28, 48 h
HL-60(TB) [11] = test: Cytotoxicity against human HL-60(TB) cells assessed as cell growth at 10 uM after 48 hrs by sulforhodamine B assay relative to control; type: functional; conditions: HL-60, 48 h, read-out: Activity
786-0 [12] = test: Cytotoxicity against human 786-0 cells assessed as cell growth at 0.1 uM after 48 hrs by sulforhodamine B assay relative to control; type: functional; conditions: 786-0, 48 h, read-out: Activity
UACC-257 [13] = test: Cytotoxicity against human UACC257 cells assessed as cell growth at 0.01 uM after 48 hrs by sulforhodamine B assay relative to control; type: functional; conditions: UACC-257, 48 h, read-out: Activity
A498 = test: Cytotoxicity against human A498 cells assessed as cell growth at 10 uM after 48 hrs by sulforhodamine B assay relative to control; type: functional; conditions: A498, 48 h, read-out: Activity
SF-539 = test: Cytotoxicity against human SF539 cells assessed as growth inhibition after 48 hrs by sulforhodamine B assay; type: functional; conditions: SF-539, 48 h
IGROV-1 [14] = test: Cytotoxicity against human IGROV1 cells assessed as growth inhibition after 48 hrs by sulforhodamine B assay; type: functional; conditions: IGROV-1, 48 h
SN12C [15] = test: Cytotoxicity against human SN12C cells assessed as cell growth at 0.01 uM after 48 hrs by sulforhodamine B assay relative to control; type: functional; conditions: read-out: Activity
SK-MEL-28 [16] = test: Cytotoxicity against human SK-MEL-28 cells assessed as cell growth at 1 uM after 48 hrs by sulforhodamine B assay relative to control; type: functional; conditions: SK-MEL-28, 48 h, read-out: Activity
PC-3 [17] = test: Cytotoxicity against human PC3 cells assessed as cell growth at 0.01 uM after 48 hrs by sulforhodamine B assay relative to control; type: functional; conditions: PC-3, 48 h, read-out: Activity
SR = test: Cytotoxicity against human SR cells assessed as cell growth at 1 uM after 48 hrs by sulforhodamine B assay relative to control; type: functional; conditions: read-out: Activity
NCI-H460 = test: Cytotoxicity against human NCI-H460 cells assessed as growth inhibition after 48 hrs by sulforhodamine B assay; type: functional; conditions: NCI-H460, 48 h
SN12C [18] = test: Cytotoxicity against human SN12C cells assessed as cell growth at 10 uM after 48 hrs by sulforhodamine B assay relative to control; type: functional; conditions: read-out: Activity
RXF 393 = test: Cytotoxicity against human RXF393 cells assessed as cell growth at 1 uM after 48 hrs by sulforhodamine B assay relative to control; type: functional; conditions: RXF 393, 48 h, read-out: Activity
UACC-62 = test: Cytotoxicity against human UACC62 cells assessed as cell growth at 1 uM after 48 hrs by sulforhodamine B assay relative to control; type: functional; conditions: UACC-62, 48 h, read-out: Activity
SK-OV-3 = test: Cytotoxicity against human SKOV3 cells assessed as cell growth at 1 uM after 48 hrs by sulforhodamine B assay relative to control; type: functional; conditions: SK-OV-3, 48 h, read-out: Activity
SK-MEL-28 [19] = test: Cytotoxicity against human SK-MEL-28 cells assessed as cell growth at 10 uM after 48 hrs by sulforhodamine B assay relative to control; type: functional; conditions: SK-MEL-28, 48 h, read-out: Activity
CCRF-CEM = test: Cytotoxicity against human CCRF-CEM cells assessed as cell growth at 0.1 uM after 48 hrs by sulforhodamine B assay relative to control; type: functional; conditions: read-out: Activity
NCI-H23 = test: Cytotoxicity against human NCI-H23 cells assessed as cell growth at 0.1 uM after 48 hrs by sulforhodamine B assay relative to control; type: functional; conditions: NCI-H23, 48 h, read-out: Activity
PC-3 [20] = test: Cytotoxicity against human PC3 cells assessed as cell growth at 1 uM after 48 hrs by sulforhodamine B assay relative to control; type: functional; conditions: PC-3, 48 h, read-out: Activity
MDA-MB-231 [21] = test: Cytotoxicity against human MDA-MB-231 cells assessed as growth inhibition after 48 hrs by MTT assay; type: functional, cell-based; conditions: MDA-MB-231, 48 h

COc1ccc(-c2cc(/C=C/C(=O)c3ccc(OC)c(OC)c3)[nH]n2)cc1
growth at 0.01 µM (ACHN): 100%
GI50 (HL-60(TB) [1]): 2.18 µM
LC50 (HL-60(TB) [1]): > 100 µM
TGI (HL-60(TB) [1]): 6.4 µM
growth at 1 µM (MOLT-4 [2]): 95%
growth at 0.01 µM (DU-145): 104%
growth at 10 µM (HOP-62 [3]): -25%
growth at 10 µM (TK-10): -59%
growth at 10 µM (IGROV-1 [4]): -60%
growth at 1 µM (UACC-257 [5]): 87%
growth at 0.1 µM (HOP-62 [6]): 97%
growth at 100 µM (786-0 [7]): -96%
growth at 1 µM (A549): 77%
growth at 10 µM (NCI/ADR-RES): 15%
growth at 10 µM (MOLT-4 [8]): -10%
growth at 100 µM (SK-MEL-5): -100%
growth at 100 µM (MDA-MB-231 [9]): -86%
GI50 (SK-MEL-28 [10]): 1.65 µM
LC50 (SK-MEL-28 [10]): 5.74 µM
TGI (SK-MEL-28 [10]): 3.07 µM
growth at 10 µM (HL-60(TB) [11]): -21%
growth at 0.1 µM (786-0 [12]): 102%
growth at 0.01 µM (UACC-257 [13]): 92%
growth at 10 µM (A498): -57%
GI50 (SF-539): 1.27 µM
LC50 (concentration killing 50% of cells) (SF-539): 5.38 µM
TGI (SF-539): 2.61 µM
GI50 (IGROV-1 [14]): 1.57 µM
LC50 (IGROV-1 [14]): 8.49 µM
TGI (IGROV-1 [14]): 3.65 µM
growth at 0.01 µM (SN12C [15]): 95%
growth at 1 µM (SK-MEL-28 [16]): 90%
growth at 0.01 µM (PC-3 [17]): 95%
growth at 1 µM (SR): 39%
GI50 (NCI-H460): 1.64 µM
LC50 (NCI-H460): 22.8 µM
TGI (NCI-H460): 4.34 µM
growth at 10 µM (SN12C [18]): -58%
growth at 1 µM (RXF 393): 72%
growth at 1 µM (UACC-62): 85%
growth at 1 µM (SK-OV-3): 112%
growth at 10 µM (SK-MEL-28 [19]): -95%
growth at 0.1 µM (CCRF-CEM): 97%
growth at 0.1 µM (NCI-H23): 101%
growth at 1 µM (PC-3 [20]): 71%
IC50 (MDA-MB-231 [21]): 0.6 µM

COc1ccc(-c2cc(/C=C/C(=O)c3cc(OC)c(OC)c(OC)c3)[nH]n2)cc1OC
growth at 0.01 µM (ACHN): 95%
GI50 (HL-60(TB) [1]): 1.69 µM
LC50 (HL-60(TB) [1]): > 100 µM
TGI (HL-60(TB) [1]): 14.8 µM
growth at 1 µM (MOLT-4 [2]): 69%
growth at 0.01 µM (DU-145): 108%
growth at 10 µM (HOP-62 [3]): -57%
growth at 10 µM (TK-10): 7%
growth at 10 µM (IGROV-1 [4]): -7%
growth at 1 µM (UACC-257 [5]): 89%
growth at 0.1 µM (HOP-62 [6]): 80%
growth at 100 µM (786-0 [7]): -90%
growth at 1 µM (A549): 82%
growth at 10 µM (NCI/ADR-RES): 9%
growth at 10 µM (MOLT-4 [8]): -4%
growth at 100 µM (SK-MEL-5): -98%
growth at 100 µM (MDA-MB-231 [9]): -71%
GI50 (SK-MEL-28 [10]): 1.91 µM
LC50 (SK-MEL-28 [10]): 10.6 µM
TGI (SK-MEL-28 [10]): 4.41 µM
growth at 10 µM (HL-60(TB) [11]): 2%
growth at 0.1 µM (786-0 [12]): 91%
growth at 0.01 µM (UACC-257 [13]): 96%
growth at 10 µM (A498): -28%
GI50 (SF-539): 0.3 µM
LC50 (concentration killing 50% of cells) (SF-539): 4.57 µM
TGI (SF-539): 1.48 µM
GI50 (IGROV-1 [14]): 2.72 µM
LC50 (IGROV-1 [14]): 46.7 µM
TGI (IGROV-1 [14]): 8.61 µM
growth at 0.01 µM (SN12C [15]): 98%
growth at 1 µM (SK-MEL-28 [16]): 89%
growth at 0.01 µM (PC-3 [17]): 97%
growth at 1 µM (SR): 5%
GI50 (NCI-H460): 1.04 µM
LC50 (NCI-H460): 29.9 µM
TGI (NCI-H460): 3.6 µM
growth at 10 µM (SN12C [18]): -62%
growth at 1 µM (RXF 393): 80%
growth at 1 µM (UACC-62): 88%
growth at 1 µM (SK-OV-3): 87%
growth at 10 µM (SK-MEL-28 [19]): -49%
growth at 0.1 µM (CCRF-CEM): 91%
growth at 0.1 µM (NCI-H23): 95%
growth at 1 µM (PC-3 [20]): 71%
IC50 (MDA-MB-231 [21]): 2 µM
